Reference: patent US7976582B2, “Bleaching of substrates” (Conopco, Inc., priority 2007, dated 2011)

Columns and labels:
[1] = Raw cotton bleaching, NaOH/H2O2 pretreatment without catalyst, then lower pH and add catalyst (Experiment 2)
Protocol: Raw cotton with a Berger Whiteness value of 5.5+/−1.0 was treated as follows: 6 grams of the cotton was immersed into temperature-controlled beaker glasses of a 60 ml solution (cloth/liquor ratio of 1/10), containing 0.5 g/l DTPA, 2 g/l Sandoclean PCJ, 2.3% H2O2 (equals to 6.66 ml (35%)/1; w/w wrt cotton), for 15 minutes at 75° C. Subsequently, sulphuric acid was added (1M) until the desired pH was added followed by 20 microM of [Mn2O3(Me3-TACN)2] (PF6)2.H2O and the mixture left for 15 minutes with continuous stirring. No NaOH solution was added during the bleaching process in the presence of catalyst. After the allocated time, the cloths are washed and dried as exemplified above. The values of the whiteness are expressed in Berger units, as defined above.
Table 2: Whiteness (Berger) results obtained using 20 microM [Mn2O3(Me3-TACN)2] (PF6)2.H2O in an unbuffered solution with 0.2 g/l DTPA at 75° C. for 15 minutes, after having the cloths allowed to pretreat with NaOH/H2O2 for 15 minutes at 75° C. (entry 1) vs adding the catalyst at the beginning of the bleaching experiment at pH 9.75.

[2] = Raw cotton bleaching, pH control by continuously adding NaOH (Experiment 1); settings: for Whiteness (Berger) Wb: 20 microM catalyst, unbuffered, 0.2 g/l DTPA, H2O2, 80° C., 30 minutes
Protocol: Raw cotton with a Berger Whiteness value of 5.5+/−1.0 was treated as follows: 6 grams of the cotton was immersed into temperature-controlled beaker glasses a 60 ml solution (cloth/liquor ratio of 1/10) containing 20 microM of [Mn2O3(Me3-TACN)2] […]
Drops of NaOH (1M) were added to maintain the pH (within 0.2 pH units) for 30 minutes of agitated solutions at 75 to 80° C. The pH was monitored with a pH meter. Subsequently the cotton swatches were rinsed with 2 to 3 liters of hot demineralised water (80° C.), then washed with copious amounts of demineralised water, spun in a spin drier for 3 minutes and dried overnight under ambient conditions. The optical properties of the cloths were then measured using a Minolta spectrophotometer CM-3700d, using L, a, b values which are converted to Berger Whiteness values.
The values of the whiteness is expressed in Berger units. The formula of Berger whiteness is given below: Wberger=Y+a.Z−b.X, where a=3.448 and b=3.904.
The values X, Y, Z are the coordinates of the achromatic point.

[3] = 20° C.; cited from earlier work
[4] = Raw cotton bleaching, high starting pH left to reduce during bleaching (Experiment 3); settings: 10 microM catalyst, H2O2, DTPA, 77° C., 30 minutes; pH(init) 10.7, pH(final) 9.7
Protocol: A batch of raw cotton with a Berger Whiteness value of 0 was treated as follows: 6 grams of the cotton was immersed into temperature-controlled beaker glasses a 60 ml solution (cloth/liquor ratio of 1/10) containing 10 microM of [Mn2O3(Me3-TACN)2] (PF6)2.H2O, 2.3% H2O2 (equals to 6.66 ml (35%)/l; w/w wrt cotton), 0.4 g/l H5-DTPA (ex Akzo-Nobel; trade name Dissolvine D50; purity is 50%), and 2 g/l Sandoclean PCJ (ex Clariant). The temperature of the experiment was 77° C.
The pH of water containing Sandoclean, Na5DTPA, cotton and appropriate amount of NaOH was determined at room temperature, heated to 77° C., the pH value was monitored and then hydrogen peroxide was added. Then a correction for the addition of hydrogen peroxide was made by adding some extra NaOH. Then the catalyst was added and left for 30 minutes under stirring. The cloths were then rinsed and washed as described above. The pH of the solution after the bleaching stage was determined after allowing the solution cooled down to room temperature. As a comparative experiment to determine the effect of the manganese-triazacyclononane compound, no catalyst was added. The values of the whiteness are expressed in Berger units, as defined above.

## CN1CCN(C)CCN(C)CC1.CN1CCN(C)CCN(C)CC1.F[P-](F)(F)(F)(F)F.F[P-](F)(F)(F)(F)F.O.[Mn+4].[Mn+4].[O-2].[O-2].[O-2] [[Mn2O3(Me3-TACN)2](PF6)2•H2O, [Mn2O3(Me3-TACN)2] (PF6)2.H2O]
[1]; 20 microM catalyst, 0.2 g/l DTPA, 75° C., 15 minutes after 15 minutes NaOH/H2O2 pretreatment, pH(step 1) 11, pH(step2) 10, pH(final) 9.4
  Whiteness (Berger) Wb: 60.0 Wb
[1]; catalyst added at the beginning, no pretreatment, pH 9.75, pH(final) 7.6
  Whiteness (Berger) Wb: 51.0 Wb
[2]; pH(init) 9.75, pH(final) 7.3 (pH not controlled)
  Whiteness (Berger) Wb: 51.0 Wb
[2]; pH(init) 10.0, pH(final) 9.5 (pH controlled with NaOH)
  Whiteness (Berger) Wb: 63.1 Wb
[2]; in the presence of catalyst, without DTPA added
  Whiteness lower without DTPA than the system with DTPA: about 10 Wb
[3]
  water solubility: 10.8 g per liter
[4]
  Whiteness (Berger) Wb: 57.6 Wb
